Assay results: ChEMBL document CHEMBL1201862, “PubChem BioAssay data set” (2004)
The source made the active and inactive calls.

Legend:
[1] = molecular target: RNA-editing ligase 1, mitochondrial (Trypanosoma brucei brucei, UniProt P86926); assay: TbREL1 ligase inhibitors, dose response, biochemical, fluorescence, Trypanosoma brucei (AID 1117295); format: functional
[2] = molecular target: T1, Rac GTPase-activating protein 1 (Homo sapiens, UniProt Q9H0H5); assay: MgcRacGAP GTPase-activating activity inhibitors, confirmation, biochemical, ADP Hunter fluorescence, primary and confirmatory (AID 624330); format: functional
T1 sequence (Q9H0H5 whole entry): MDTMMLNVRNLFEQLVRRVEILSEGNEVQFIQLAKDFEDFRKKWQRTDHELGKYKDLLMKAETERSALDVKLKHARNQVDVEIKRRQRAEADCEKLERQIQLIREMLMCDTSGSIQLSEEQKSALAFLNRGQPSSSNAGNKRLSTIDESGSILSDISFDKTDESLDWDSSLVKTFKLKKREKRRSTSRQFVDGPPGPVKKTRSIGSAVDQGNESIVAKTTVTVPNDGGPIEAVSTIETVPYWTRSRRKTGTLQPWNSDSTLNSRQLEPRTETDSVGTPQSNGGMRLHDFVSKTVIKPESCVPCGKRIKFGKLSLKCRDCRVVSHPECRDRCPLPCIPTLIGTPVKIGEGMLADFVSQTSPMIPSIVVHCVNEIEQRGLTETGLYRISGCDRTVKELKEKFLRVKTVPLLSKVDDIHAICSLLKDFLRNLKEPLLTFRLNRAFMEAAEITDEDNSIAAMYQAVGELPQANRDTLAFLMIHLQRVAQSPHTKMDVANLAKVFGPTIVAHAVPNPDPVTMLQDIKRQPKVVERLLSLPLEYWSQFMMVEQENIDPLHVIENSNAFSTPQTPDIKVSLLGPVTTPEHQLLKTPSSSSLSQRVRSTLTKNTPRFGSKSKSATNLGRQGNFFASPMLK

Prothrombin = Prothrombin (Bos taurus, UniProt P00735); assay: thrombin inhibition, dose response, biochemical, fluorescence polarization, uHTS hits (AID 602369); format: functional
[3] = molecular target: T2, Histone-lysine N-methyltransferase NSD2 (Homo sapiens, UniProt O96028); format: biochemical
T2 sequence (O96028 whole entry): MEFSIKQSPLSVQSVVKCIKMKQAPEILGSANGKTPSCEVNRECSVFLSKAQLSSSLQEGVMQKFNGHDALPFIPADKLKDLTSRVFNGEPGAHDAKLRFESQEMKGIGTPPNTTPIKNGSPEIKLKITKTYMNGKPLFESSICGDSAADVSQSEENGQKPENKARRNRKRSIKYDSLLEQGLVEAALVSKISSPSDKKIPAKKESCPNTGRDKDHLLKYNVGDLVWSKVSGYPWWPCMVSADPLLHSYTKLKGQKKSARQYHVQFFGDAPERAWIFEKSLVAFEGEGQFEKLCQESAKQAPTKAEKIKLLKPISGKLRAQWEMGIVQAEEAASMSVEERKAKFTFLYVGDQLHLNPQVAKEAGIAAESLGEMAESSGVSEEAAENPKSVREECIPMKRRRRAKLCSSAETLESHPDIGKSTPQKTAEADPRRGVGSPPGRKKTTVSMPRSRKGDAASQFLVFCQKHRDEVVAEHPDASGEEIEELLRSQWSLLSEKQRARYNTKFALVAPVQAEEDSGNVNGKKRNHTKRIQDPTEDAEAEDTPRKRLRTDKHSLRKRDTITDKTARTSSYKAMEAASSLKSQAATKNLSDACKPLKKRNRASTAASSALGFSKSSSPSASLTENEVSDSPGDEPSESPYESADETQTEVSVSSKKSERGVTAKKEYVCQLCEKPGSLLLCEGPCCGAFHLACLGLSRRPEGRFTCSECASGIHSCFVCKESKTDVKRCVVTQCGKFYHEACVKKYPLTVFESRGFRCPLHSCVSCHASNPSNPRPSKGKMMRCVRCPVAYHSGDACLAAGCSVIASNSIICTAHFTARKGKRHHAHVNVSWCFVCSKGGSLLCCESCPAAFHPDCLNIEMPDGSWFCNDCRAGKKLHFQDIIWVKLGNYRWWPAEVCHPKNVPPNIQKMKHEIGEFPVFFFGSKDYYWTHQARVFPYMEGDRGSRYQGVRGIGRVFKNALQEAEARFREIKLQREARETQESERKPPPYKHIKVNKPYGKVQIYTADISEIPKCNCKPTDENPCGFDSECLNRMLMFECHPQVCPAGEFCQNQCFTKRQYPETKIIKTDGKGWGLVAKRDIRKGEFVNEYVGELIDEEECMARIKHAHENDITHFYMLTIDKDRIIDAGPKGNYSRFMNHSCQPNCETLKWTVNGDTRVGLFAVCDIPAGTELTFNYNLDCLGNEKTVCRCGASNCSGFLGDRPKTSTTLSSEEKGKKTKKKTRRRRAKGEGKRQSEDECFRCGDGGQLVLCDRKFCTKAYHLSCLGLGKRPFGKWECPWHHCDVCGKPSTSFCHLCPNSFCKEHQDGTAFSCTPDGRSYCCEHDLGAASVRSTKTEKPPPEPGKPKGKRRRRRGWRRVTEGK

[4] = molecular target: Bifunctional protein GlmU (Mycobacterium tuberculosis, UniProt P9WMN3); assay: Inhibitors of Mycobacterial Glucosamine-1-phosphate acetyl transferase (GlmU). Secondary screen.; parameters: species or system Mycobacterium tuberculosis H37Rv
[5] = molecular target: Induced myeloid leukemia cell differentiation protein Mcl-1 (Homo sapiens, UniProt Q07820); format: functional
[6] = molecular target: 26S proteasome non-ATPase regulatory subunit 14 (Homo sapiens, UniProt O00487); assay: inhibition of proteasome subunit RPN11 – biochemical, fluorescence polarization, uHTS hits, confirmation (AID 602368); format: functional
[7] = molecular target: DNA (cytosine-5)-methyltransferase 1 (Homo sapiens, UniProt P26358); assay: DNMT1 methyltransferase inhibitors, confirmation, biochemical, fluorescent molecular beacon (AID 602386); format: functional
[8] = molecular target: 72 kDa type IV collagenase (Homo sapiens, UniProt P08253); assay: Dose Response validation of uHTS RPN11 inhibitor hits using a MMP-2 Fluorescence assay.; format: functional
Aminopeptidase N = molecular target: T3, Aminopeptidase N (Plasmodium falciparum FcB1/Columbia, UniProt O96935); assay: P. falciparum M1AAP inhibitors, biochemical, fluorogenic H-Leu-NHMec substrate, 1536-well (AID 1445); parameters: species or system Plasmodium falciparum 3D7, 3D7
T3 sequence (O96935 whole entry): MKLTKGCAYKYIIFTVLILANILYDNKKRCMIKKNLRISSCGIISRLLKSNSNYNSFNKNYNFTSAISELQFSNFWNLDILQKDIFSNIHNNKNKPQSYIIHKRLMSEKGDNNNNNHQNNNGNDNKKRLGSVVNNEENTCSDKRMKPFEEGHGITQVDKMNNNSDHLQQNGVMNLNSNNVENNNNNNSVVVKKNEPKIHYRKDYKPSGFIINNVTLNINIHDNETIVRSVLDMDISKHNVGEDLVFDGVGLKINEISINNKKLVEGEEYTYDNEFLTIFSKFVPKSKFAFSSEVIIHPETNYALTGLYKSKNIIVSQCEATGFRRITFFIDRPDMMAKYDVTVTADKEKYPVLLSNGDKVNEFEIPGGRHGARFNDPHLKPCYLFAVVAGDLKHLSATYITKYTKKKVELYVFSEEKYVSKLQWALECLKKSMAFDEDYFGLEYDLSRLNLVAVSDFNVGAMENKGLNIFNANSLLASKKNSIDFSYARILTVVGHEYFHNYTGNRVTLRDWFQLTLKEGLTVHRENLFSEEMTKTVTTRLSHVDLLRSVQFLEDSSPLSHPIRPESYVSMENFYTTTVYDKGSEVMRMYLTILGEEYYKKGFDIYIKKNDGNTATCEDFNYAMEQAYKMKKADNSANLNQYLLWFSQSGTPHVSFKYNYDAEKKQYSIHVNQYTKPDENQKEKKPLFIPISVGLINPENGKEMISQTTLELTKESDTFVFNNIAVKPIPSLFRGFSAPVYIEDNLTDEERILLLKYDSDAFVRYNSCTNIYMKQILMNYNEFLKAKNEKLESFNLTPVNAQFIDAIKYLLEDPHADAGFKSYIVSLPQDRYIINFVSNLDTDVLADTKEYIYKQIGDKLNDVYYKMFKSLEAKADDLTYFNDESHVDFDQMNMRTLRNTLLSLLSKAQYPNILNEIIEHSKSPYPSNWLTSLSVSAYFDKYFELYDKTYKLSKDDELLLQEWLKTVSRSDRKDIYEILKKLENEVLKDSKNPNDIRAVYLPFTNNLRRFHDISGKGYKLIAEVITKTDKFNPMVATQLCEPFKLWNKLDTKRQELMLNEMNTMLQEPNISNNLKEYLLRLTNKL

[9] = P. falciparum 3D7-ScDHODH growth inhibitors, dose response, SYBR Green, dry powder samples (AID 1159570); format: functional, cell-based;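 also: parasite growth measured after 72 hours of compound exposure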
[10] = Plasmodium falciparum Dd2 Sybr green parasite growth Measured in Cell-Based and Microorganism Combination System Using Plate Reader - 2153-01_Inhibitor_Dose_DryPowder_Activity_Set3.; format: functional
[11] = P. falciparum Dd2 growth inhibitors, dose response, SYBR Green, dry powder samples (AID 1159566); format: functional, cell-based;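 also: potency for growth inhibition with lower SYBR green DNA signal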
[12] = P. falciparum ATP4 D1247Y mutant growth inhibitors, dose response, NITD609-resistant line, SYBR Green, dry powder (AID 1159571); format: functional, cell-based;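 also: parasites synchronized at ring stage by sorbitol before testing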
[13] = P. falciparum Dd2 growth inhibitors, dose response, SYBR Green, cherry-picked samples (AID 1159567); format: functional, cell-based
[14] = HepG2 cell cytotoxicity, dose response, cytotoxicity control, cherry-picked samples (AID 1159577); format: functional, cell-based
[15] = HepG2 cell cytotoxicity, dose response, cytotoxicity control, plate reader, dry powder samples (AID 1159569); format: functional, cell-based;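 also: inhibitor potency with signal falling toward the positive control level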

Sequence of DNA (cytosine-5)-methyltransferase 1 (P26358 whole entry): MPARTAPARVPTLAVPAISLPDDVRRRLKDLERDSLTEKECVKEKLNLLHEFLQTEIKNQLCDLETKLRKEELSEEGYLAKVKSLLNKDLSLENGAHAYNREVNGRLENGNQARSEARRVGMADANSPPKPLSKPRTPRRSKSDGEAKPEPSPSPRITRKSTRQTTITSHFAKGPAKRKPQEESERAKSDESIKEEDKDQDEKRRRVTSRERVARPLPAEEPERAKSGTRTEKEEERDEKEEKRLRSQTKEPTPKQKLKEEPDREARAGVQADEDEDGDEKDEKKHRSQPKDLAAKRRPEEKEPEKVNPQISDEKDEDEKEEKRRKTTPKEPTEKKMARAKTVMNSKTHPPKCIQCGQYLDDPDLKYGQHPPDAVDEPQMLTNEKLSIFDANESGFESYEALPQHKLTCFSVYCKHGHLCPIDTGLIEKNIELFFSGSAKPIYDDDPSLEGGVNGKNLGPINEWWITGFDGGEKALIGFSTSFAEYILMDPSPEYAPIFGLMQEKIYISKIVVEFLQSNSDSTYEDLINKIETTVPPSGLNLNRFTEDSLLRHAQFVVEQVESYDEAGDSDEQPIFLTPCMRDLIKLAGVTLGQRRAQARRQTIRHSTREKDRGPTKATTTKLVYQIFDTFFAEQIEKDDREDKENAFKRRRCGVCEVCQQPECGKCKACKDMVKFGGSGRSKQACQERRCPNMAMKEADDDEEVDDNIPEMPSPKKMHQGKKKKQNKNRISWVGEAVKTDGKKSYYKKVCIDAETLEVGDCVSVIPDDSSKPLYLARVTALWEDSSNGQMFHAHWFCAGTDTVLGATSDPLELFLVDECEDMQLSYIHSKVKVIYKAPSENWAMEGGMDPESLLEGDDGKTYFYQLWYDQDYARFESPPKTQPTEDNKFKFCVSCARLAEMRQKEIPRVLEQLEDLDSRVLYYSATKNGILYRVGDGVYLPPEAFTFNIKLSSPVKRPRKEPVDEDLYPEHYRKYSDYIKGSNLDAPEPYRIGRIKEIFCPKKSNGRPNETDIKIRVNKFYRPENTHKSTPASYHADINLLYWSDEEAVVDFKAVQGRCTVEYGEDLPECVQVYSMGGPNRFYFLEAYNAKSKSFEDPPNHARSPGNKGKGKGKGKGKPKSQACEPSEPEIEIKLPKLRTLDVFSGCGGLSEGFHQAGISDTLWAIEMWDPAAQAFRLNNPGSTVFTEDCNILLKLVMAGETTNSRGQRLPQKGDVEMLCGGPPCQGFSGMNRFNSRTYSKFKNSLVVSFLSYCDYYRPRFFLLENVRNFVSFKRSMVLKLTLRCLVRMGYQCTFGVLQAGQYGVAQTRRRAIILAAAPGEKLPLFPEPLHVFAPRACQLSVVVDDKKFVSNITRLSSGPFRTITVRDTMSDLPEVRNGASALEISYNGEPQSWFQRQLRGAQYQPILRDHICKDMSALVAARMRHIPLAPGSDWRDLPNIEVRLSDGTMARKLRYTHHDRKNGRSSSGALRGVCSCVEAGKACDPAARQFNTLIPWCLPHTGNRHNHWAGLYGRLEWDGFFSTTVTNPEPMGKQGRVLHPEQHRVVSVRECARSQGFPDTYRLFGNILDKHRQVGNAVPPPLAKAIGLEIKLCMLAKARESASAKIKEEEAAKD
Sequence of 72 kDa type IV collagenase (P08253 whole entry): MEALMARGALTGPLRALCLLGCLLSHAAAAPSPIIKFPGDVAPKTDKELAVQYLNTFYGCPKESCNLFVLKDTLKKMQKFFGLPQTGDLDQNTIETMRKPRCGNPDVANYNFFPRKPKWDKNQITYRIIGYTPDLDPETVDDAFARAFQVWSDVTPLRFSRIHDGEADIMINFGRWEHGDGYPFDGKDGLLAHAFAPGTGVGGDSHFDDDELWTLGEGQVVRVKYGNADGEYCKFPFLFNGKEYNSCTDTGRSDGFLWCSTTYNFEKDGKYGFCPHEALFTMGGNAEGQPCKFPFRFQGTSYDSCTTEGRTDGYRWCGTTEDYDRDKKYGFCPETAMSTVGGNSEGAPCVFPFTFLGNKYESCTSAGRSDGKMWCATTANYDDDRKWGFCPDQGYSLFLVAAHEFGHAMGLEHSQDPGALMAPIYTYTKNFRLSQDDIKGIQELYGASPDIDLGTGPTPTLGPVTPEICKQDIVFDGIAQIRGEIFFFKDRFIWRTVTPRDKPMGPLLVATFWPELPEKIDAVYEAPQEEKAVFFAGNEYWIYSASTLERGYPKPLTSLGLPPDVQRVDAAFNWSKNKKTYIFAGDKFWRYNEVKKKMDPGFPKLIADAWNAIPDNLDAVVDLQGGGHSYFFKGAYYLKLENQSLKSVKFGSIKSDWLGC
Sequence of 26S proteasome non-ATPase regulatory subunit 14 (O00487 whole entry): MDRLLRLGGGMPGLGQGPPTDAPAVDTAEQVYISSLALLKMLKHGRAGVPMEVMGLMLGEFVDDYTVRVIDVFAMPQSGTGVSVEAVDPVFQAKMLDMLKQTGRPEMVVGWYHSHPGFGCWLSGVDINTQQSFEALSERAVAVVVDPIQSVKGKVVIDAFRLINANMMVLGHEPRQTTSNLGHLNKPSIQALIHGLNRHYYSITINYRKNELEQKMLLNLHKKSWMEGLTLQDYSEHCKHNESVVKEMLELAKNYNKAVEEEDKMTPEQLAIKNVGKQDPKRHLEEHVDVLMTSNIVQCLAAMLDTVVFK
Sequence of Induced myeloid leukemia cell differentiation protein Mcl-1 (Q07820 whole entry): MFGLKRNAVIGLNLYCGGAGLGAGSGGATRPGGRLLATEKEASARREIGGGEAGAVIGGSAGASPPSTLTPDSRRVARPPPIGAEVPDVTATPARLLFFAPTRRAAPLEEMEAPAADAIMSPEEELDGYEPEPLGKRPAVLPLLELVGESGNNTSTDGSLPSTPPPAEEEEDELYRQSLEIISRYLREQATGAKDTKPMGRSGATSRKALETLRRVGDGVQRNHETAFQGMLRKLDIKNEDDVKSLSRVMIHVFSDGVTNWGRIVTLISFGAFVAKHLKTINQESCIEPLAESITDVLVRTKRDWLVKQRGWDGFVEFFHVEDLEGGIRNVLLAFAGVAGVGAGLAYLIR
Sequence of RNA-editing ligase 1, mitochondrial (P86926 whole entry): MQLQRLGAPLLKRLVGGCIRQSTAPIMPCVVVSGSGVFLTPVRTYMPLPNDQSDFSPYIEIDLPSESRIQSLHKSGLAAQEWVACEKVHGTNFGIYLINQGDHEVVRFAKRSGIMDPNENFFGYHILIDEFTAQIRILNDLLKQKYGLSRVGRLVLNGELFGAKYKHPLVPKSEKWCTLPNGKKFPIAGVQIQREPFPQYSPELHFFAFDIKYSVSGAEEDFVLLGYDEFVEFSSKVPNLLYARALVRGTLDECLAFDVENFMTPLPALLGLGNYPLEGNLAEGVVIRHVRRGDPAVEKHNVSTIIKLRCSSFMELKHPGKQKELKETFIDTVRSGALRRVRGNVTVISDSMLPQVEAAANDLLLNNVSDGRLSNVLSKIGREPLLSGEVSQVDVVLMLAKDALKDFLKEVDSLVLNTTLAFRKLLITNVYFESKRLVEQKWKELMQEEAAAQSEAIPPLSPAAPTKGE
Sequence of Bifunctional protein GlmU (P9WMN3 whole entry): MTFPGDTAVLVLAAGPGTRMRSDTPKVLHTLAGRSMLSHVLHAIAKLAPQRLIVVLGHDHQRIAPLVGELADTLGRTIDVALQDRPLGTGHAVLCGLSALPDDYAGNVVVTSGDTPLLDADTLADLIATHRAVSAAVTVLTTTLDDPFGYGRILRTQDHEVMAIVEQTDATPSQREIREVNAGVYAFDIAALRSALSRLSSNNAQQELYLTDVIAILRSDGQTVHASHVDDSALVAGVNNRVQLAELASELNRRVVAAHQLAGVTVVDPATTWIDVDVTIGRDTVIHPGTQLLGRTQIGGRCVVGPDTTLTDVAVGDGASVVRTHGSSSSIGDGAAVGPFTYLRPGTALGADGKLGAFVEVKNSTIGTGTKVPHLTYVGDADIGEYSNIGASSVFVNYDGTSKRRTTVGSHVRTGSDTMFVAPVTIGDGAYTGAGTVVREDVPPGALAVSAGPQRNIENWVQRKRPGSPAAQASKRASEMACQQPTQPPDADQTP

SMILES: COC(=O)C1=C(C)N(Cc2ccccc2C(F)(F)F)C(NCc2ccc(C(F)(F)F)cc2)=NC1c1ccccc1 (configuration not stated)
- IC50 [1]: > 96.6 µM (inactive)

SMILES: CCS(=O)(=O)C1=NN2C(=N)/C(=C\c3ccc(SCc4ccco4)o3)C(=O)N=C2S1
- IC50 [2]: 132 µM (active)
- IC50 (Prothrombin): 28.5 µM (active)
- AC50 [3]: 7.62 µM (active)
- IC50 [4]: 49.4 µM (active)
- IC50 [5]: 3.96 µM (active)
- IC50 [6]: 12 µM (active)
- IC50 [7]: 5.71 µM (active)
- IC50 [8]: 4.49 µM (active)
- IC50 (Aminopeptidase N): 24.2 µM (active)

SMILES: N#C[C@@H]1[C@H](c2ccc(C3=CCCCC3)cc2)[C@@H](CO)N1C(=O)NC1CCCC1
- AC50 [9]: 9.32 µM (active)
- AC50 [10]: 0.399 µM (active)
- AC50 [11]: 0.409 µM (active)
- AC50 [12]: 0.549 µM (active)
- AC50 [13]: 0.42 µM (active)
- AC50 [14]: > 39 µM (inactive)
- AC50 [15]: 62.5 µM (active)
